Source: patent US20230391732A1, “MULTI-EFFICACY PYRAZINE COMPOUND, PREPARATION METHOD AND USE THEREOF” (SHENZHEN OLIVE BIOPHARMACEUTICALS CO., LTD, priority 2020, published 2023)

What was measured:
db/db mice [1] = assay: Biochemical and metabolic indicators in db/db mice, 56 d administration; type: in vivo; conditions: Losartan 15 mg/kg/d, TMP 5.0 mg/kg, OLB-3 13.32 mg/kg, n=6; for Urine albumin/creatinine: once/d for 56 d, mean, SEM
db/db mice [2] = assay: Glucose and lipid metabolism in db/db mice, 56 d administration; type: in vivo; conditions: TMP 5.0 mg/kg, OLB-3 13.32 mg/kg, mean±SEM, n=6
Protocol: (§1) Mice of a normal control group (WT) and model mice were given normal saline 10 ml/kg/d, Losartan 15 mg/kg/d, TMP (5.0 mg/kg, 0.037 mmol/kg), and OLB-3 (13.32 mg/kg, 0.037 mmol/kg), at a volume of 10 mL/kg, once/d, for continuous administration of 56 d, blood lipids and blood glucose related indexes were measured after blood collection. Data were presented as mean±SEM; n=6 per group.

5*FAD mice [3] = assay: Y-maze in 5*FAD mice; type: in vivo; conditions: 6-month-old 5*FAD mice treated 3 months; 2.63 and 13.32 mg/kg; FIG. 4
Protocol: (§2) 6-month-old 5*FAD mice were treated with OLB-3 for 3 months, and novel object recognition and Y-maze behavior were measured. Novel object recognition: during a training phase, the mice were exposed in a chamber to become familiar with two identical objects (A+A) for 5 min; during a testing phase, one of the familiar objects was replaced with another novel object (A+B), and the mice were put back in the chamber to detect probe objects for 5 min, while recording video and tracking the mice in real time. Probing was defined as a mouse with its nose pointed towards the object, sniffing or touching with its nose, and a distance of ≤2 cm was recorded from the nose to the object. A discriminant index (DI) is used to explore each object, and a calculation method thereof was as follows: (exploration time for new object−exploration time for old object)/(exploration time for new object+exploration time for old object)*100. Y-maze: an animal was placed at an end of one arm, and the sequence of the animals entering into each arm was recorded within 10 min. […] The 5*FAD mice were treated with low dosage (2.63 mg/kg, 0.007 mmol/kg, the same below) and high dosage (13.32 mg/kg, 0.037 mmol/kg, the same below) of the OLB-3 separately. Data were presented as mean±SEM; n=9-10 per group.

ALS (SOD-G93A) mice [4] = assay: Pole climbing test in ALS transgenic mice; type: in vivo; conditions: riluzole 5 mg/kg, FIG. 6
Description: The pole climbing test is generally used to evaluate a movement coordination ability, movement delay of the limbs in mice, and muscle strength. A homemade wooden pole about 50 cm long and about 1 cm in diameter was wrapped with medical gauze to increase friction of the wooden pole. The wooden pole was put vertically on a horizontal table, the mouse tail was grabbed such that the mouse head was facing down, with limbs grabbing a top of the pole; the timer was started after releasing the mouse tail, and it was ensured that the mouse crawled downward without external force, and the time was recorded for the mouse to climb from the top of the pole to a bottom platform (a standard was that mouse hind limbs were landed on the ground). […] The average value of the mouse's three pole climbing times was calculated as the final pole climbing time. […] Data were presented as mean±SEM; n=10 per group.

[5] = test system: 6-OHDA Parkinson's disease rats; assay: APO-induced rotations in 6-OHDA Parkinson's disease rats; type: in vivo; conditions: APO-induced 6-OHDA rats, 2 weeks of treatment; levodopa 25 mg/kg; FIG. 5
Description: There was no rotations in a sham-operated group, and there was no significant difference between the groups injected with 6-OHDA, with about 180 rotations. […] Data were presented as mean±SEM; n=10 per group.

[6] = test system: SH-SY5Y neuroblastoma cells; assay: LPS-induced inflammatory factors in differentiated SH-SY5Y cells (ELISA); type: cell-based; conditions: 24 h, mean±SEM, n=8; for TNF-alpha: supernatant
Protocol: (§3) The SH-SY5Y cells were recovered and incubated, and the cells in the logarithmic growth phase were taken. After 24 h of incubation, SH-SY5Y neuroblastoma cells were treated with 1 μM all-trans retinoic acid to induce differentiation, and then inoculated into a 6-well culture dish for 24 h of incubation. Then, 0.2 μM (L) or 1 μM (H) OLB-3 and 1 μg/mL LPS were added to the medium, and treated for 24 h, a supernatant medium was aspirated, and changes of inflammatory factors and oxidative stress-related proteins were measured by an ELISA kit. Data were presented as mean±SEM; n=8 per group.

SH-SY5Y cells = assay: MTT assay of SH-SY5Y cell death caused by OGD; type: cell-based; conditions: 4 h OGD, FIG. 1
Protocol: A neuroprotective effect of tetramethylpyrazine (TMP) and derivatives thereof was evaluated by MTT assay. Cells were incubated, cells in the logarithmic growth phase were collected, a concentration of a cell suspension was adjusted, an MTT-containing medium was added after dosing treatment and 4 h of incubation with OGD, incubation was conducted for 4 h, the medium in the wells was carefully removed, and 150 μl of dimethyl sulfoxide (DMSO) was added to each well, followed by shaking at a low speed for 10 min on a shaker to fully dissolve crystals, and an absorbance value of each well was measured at an OD (absorbance) value of 490 nm of an enzyme-linked immunosorbent assay instrument (at the same time, a zero adjustment well (medium, MTT, DMSO) and a control well (cells, a drug dissolution medium with the same concentration, medium, MTT, DMSO) were set). Data were presented as mean±SEM; n=8 per group.

5*FAD mice [7] = assay: Novel object recognition in 5*FAD mice; type: in vivo; conditions: 6-month-old 5*FAD mice treated 3 months; 2.63 and 13.32 mg/kg; FIG. 3
Protocol: as §2

[8] = test system: SH-SY5Y neuroblastoma cells; assay: LPS-induced oxidative stress-related proteins in differentiated SH-SY5Y cells (ELISA); type: cell-based; conditions: 24 h, mean±SEM, n=8
Protocol: as §3

db/db mice [9] = assay: Urinary protein level in db/db mice; type: in vivo; conditions: OLB-3 13.32 mg/kg once/d for 56 d, FIG. 2
Protocol: as §1, with “10” for “15”, “m/kg,” for “mL/kg,”, “urine protein levels” for “blood lipids and blood glucose related indexes”, “urine” for “blood”

ALS (SOD-G93A) mice [10] = assay: Limb grip force test in ALS transgenic mice; type: in vivo; conditions: riluzole 5 mg/kg, FIG. 7
Protocol: The limb grip force test is used directly to assess muscle strength of mice and the incidence of mice. […] After the start of administration, the grip force of the mice was tested every two weeks, and the measurement was repeated three times for each mouse, and the maximum value among the three results was taken as a maximum grip force of the mice. […] Data were presented as mean±SEM; n=10 per group.

[11] = Table 3, once/d for 56 d, Losartan 15 mg/kg/d
[12] = once/d for 56 d, Losartan 15 mg/kg/d
[13] = (H) high concentration (OLB-3 1 μM) + 1 μg/mL LPS
[14] = (L) low concentration (OLB-3 0.2 μM) + 1 μg/mL LPS

`Cc1nc(C)c(C)nc1C` [TMP, Tetramethylpyrazine, reference compound] was tested, and the Urine albumin/creatinine (db/db mice [1]) was 661.82 ± 89.54 mg/g.

In the case of `CN(C)C(=N)N=C(N)N` [metformin, reference compound], the Glycated hemoglobin (db/db mice [2]; once/d for 56 d) is reported as 628.52 ± 50.59(c) nmol/L, the High-density lipoprotein cholesterol (db/db mice [2]; once/d for 56 d) is reported as 2.19 ± 0.12(a) mM and the Low-density lipoprotein cholesterol (db/db mice [2]; once/d for 56 d) is reported as 0.59 ± 0.02(c) mM.

For `CCCCc1nc(Cl)c(CO)n1Cc1ccc(-c2ccccc2-c2nn[nH]n2)cc1` [Losartan, reference compound], the Creatinine (db/db mice [2]; [11]) was 42.12 ± 1.72(c) μmol/L, the Total cholesterol (db/db mice [2]; [12]) was 6.76 ± 0.46(c) mM and the Creatinine (db/db mice [1]; Table 4, once/d for 56 d) was 42.12 ± 1.72(c) μmol/L. The Urine albumin/creatinine (db/db mice [1]) was 582.74 ± 97.82(c) mg/g.

In the case of `Cc1nc(C)c(C(=O)OCOC(=O)OCCc2ccc(O)cc2)nc1C` [OLB-3], the “time ratio in a novel different arm” value (5*FAD mice [3]) is reported as “significantly increase a time ratio in a novel different arm”, the “pole climbing time / bradykinesia” value (ALS (SOD-G93A) mice [4]) is reported as “significantly improve the symptoms of bradykinesia” and the number of rotations [5] is reported as “effectively reduce the number of rotations”. The Creatinine (db/db mice [2]; [11]) was 42.42 ± 2.73(c) μmol/L, the Urea (db/db mice [2]; [11]) was 7.42 ± 0.31(c) mmol/L and the Total cholesterol (db/db mice [2]; [12]) was 4.15 ± 0.18(c) mM. The Triglyceride (db/db mice [2]; [12]) was 9.61 ± 0.57(c) mg/dL, the Glucose determination (db/db mice [2]; once/d for 56 d) was 17.26 ± 1.42(c) mM and the Glycated hemoglobin (db/db mice [2]; once/d for 56 d) was 517.83 ± 47.26(c) nmol/L. The High-density lipoprotein cholesterol (db/db mice [2]; once/d for 56 d) was 1.62 ± 0.11(c) mM, the Low-density lipoprotein cholesterol (db/db mice [2]; once/d for 56 d) was 0.52 ± 0.02(c) mM and the TNF-alpha [6, 13] was 4.19 ± 0.77(c) pg/ml. The IL1 [6, 13] was 4.27 ± 0.58(c) pg/ml, the IL6 [6, 13] was 5.13 ± 0.63(c) pg/ml and the TNF-alpha [6, 14] was 7.34 ± 1.38(c) pg/ml. For the same compound, the IL1 [6, 14] was 8.76 ± 1.56(c) pg/ml, the IL6 [6, 14] was 9.34 ± 1.67(b) pg/ml and the “death of SH-SY5Y cells caused by OGD (MTT)” value (SH-SY5Y cells) was “significantly reduce the death of SH-SY5Y cells caused by OGD”. For the same compound, the Creatinine (db/db mice [1]; Table 4, once/d for 56 d) was 42.42 ± 2.73(c) μmol/L, the Urea (db/db mice [1]; Table 4, once/d for 56 d) was 7.42 ± 0.31(c) mmol/L and the Urine albumin/creatinine (db/db mice [1]) was 443.82 ± 78.34(c) mg/g. For the same compound, the “time ratio to explore novel objects” value (5*FAD mice [7]) was “significantly increase a time ratio to explore novel objects”, the GSH-Px [8, 13] was 17.51 ± 1.17(c) umol/mg and the MDA [8, 13] was 6.71 ± 0.51(c) nmol/mg. The SOD [8, 13] was 18.27 ± 1.02(c) nU/ml, the GSH-Px [8, 14] was 13.21 ± 1.92(c) umol/mg and the MDA [8, 14] was 11.10 ± 0.78(c) nmol/mg. For the same compound, the SOD [8, 14] was 14.96 ± 1.32(c) nU/ml, the urinary protein levels (db/db mice [9]) was “significantly reduced urinary protein levels” and the limb grip force (ALS (SOD-G93A) mice [10]) was “effectively increase the limb force of mice”.

For `Nc1nc2ccc(OC(F)(F)F)cc2s1` [riluzole, reference compound], the “pole climbing time / bradykinesia” value (ALS (SOD-G93A) mice [4]) was “significantly improve the symptoms of bradykinesia” and the limb grip force (ALS (SOD-G93A) mice [10]) was “effectively increase the limb force of mice”.
